Measured values as given in US9340536B2, “Multicomponent crystals comprising dasatinib and selected co-crystal formers” (BASF SE, priority 2012, dated 2016).
In brackets after ≈: the same amount, converted by molar mass.

Experiments:
[1] = Aqueous solubility determination (suspension in pure water, HPLC); details: 25 °C
Method: Solubility Determinations:
Solubility determinations were carried out in pure water at 25±2° C. Suspensions with about 10 mg co-crystal in 0.5 mL water were prepared an equilibrated for two hours before the solution phase was filtered off and tested by HPLC.
HPLC was carried out on an Agilent 1100 HPLC chromatograph equipped with a UV-vis detection unit. […] The column type used was a Waters XTerra MS C18, 250×4.6 mm, 5 μm (FK-CC14). The method as referenced above is an isocratic method using an aqueous ammonium acetate/acetic acid and methanol with a ratio of 55/45. The applied flow rate was 1.0 mL per minute, the injection volume was 20 microliter and the detection wavelength was 321 nm.

[2] = estimated by Roy et al., Cryst. Growth & Design 2012 (12), 2122-2126; cited from earlier work

Cc1nc(Nc2ncc(C(=O)Nc3c(C)cccc3Cl)s2)cc(N2CCN(CCO)CC2)n1 [Dasatinib free base monohydrate, N-(2-chloro-6-methylphenyl)-2-[[6-[4-(2-hydroxyethyl)-1-piperazinyl]-2-methyl-4-pyrimidinyl]amino]-5-thiazolecarboxamide]
solubility at 2 h ([1]; pure water, thermodynamic from solid): 0.36 µg/mL

Cc1nc(Nc2ncc(C(=O)Nc3c(C)cccc3Cl)s2)cc(N2CCN(CCO)CC2)n1 [Dasatinib free base anhydrous form, N-(2-chloro-6-methylphenyl)-2-[[6-[4-(2-hydroxyethyl)-1-piperazinyl]-2-methyl-4-pyrimidinyl]amino]-5-thiazolecarboxamide]
ratio of the equilibrium solubility of anhydrous Dasatinib free base to Dasatinib monohydrate free base [2]: about 2.4 | solubility [1]: ~0.9 µg/mL (≈ 1.84 µM)
